# Literature values in patent publication US20190365933A1, “SOLVENT-FREE GADOLINIUM CONTRAST AGENTS” (Inventure, LLC, priority 2016, published 2019).
# Where two headings read alike, the source gives them in different places.
Compound,"Conditional stability constant at pH 7.4 (log Keff) (complex of gadolinium with the named ligand, log value)","Thermodynamic stability constants pH 14 (log KGdL) (complex of gadolinium with the named ligand, pH 14, ligand entirely deprotonated, log value)",Conditional stability constant at pH 7.4 (log Keff),Thermodynamic stability constants pH 14 (log KGdL) (pH 14)
"O=C(O)CN1CCN(CC(=O)O)CCN(CC(=O)O)CCN(CC(=O)O)CC1 [DOTA, 1,4,7,10-tetraazacyclododecane-1,4,7,10-tetraacetic acid]",17.2,24.7,,
O=C(O)CNC(=O)CN1CCN(CC(=O)NCC(=O)O)CCN(CC(=O)NCC(=O)O)CCN(CC(=O)NCC(=O)O)CC1 [DOTA-(gly)4],,,12.7,14.54
